Laboratory results: PMC8899577, “Targeting the anti-apoptotic Bcl-2 family proteins: machine learning virtual screening and biological evaluation of new small molecules” (Theranostics, 2022)

Key:
[1] = test system: Sbcl2 melanoma cells; experiment: Cell viability by MTT, Sbcl2; format: cell-based; details: Homo sapiens, 72 h
Protocol: (§1) The effect of compounds on cell viability was performed by measuring 3-[4,5-dimethylthiazol-2-yl]-2,5-diphenyltetrazolium bromide inner salt (MTT, Sigma-Aldrich) dye absorbance (solid tumor cells) or by quantization of ATP present in metabolically active cells using CellTiter-Glo® Luminescent (Promega, Fitchburg, Wisconsin, USA) (hematologic cells) following manifacturer's protocol. To evaluate the cell colony-forming ability, cell suspension from different samples was seeded into 60-mm Petri dishes. After 10 days, colonies were stained with 2% methylene blue in 95% ethanol and counted (1 colony > 50 cells). The surviving fractions were calculated as the ratio of absolute survival of the treated sample/survival of DMSO-treated control sample.
Figure 1 Cytotoxic screening of putative inhibitors of Bcl-2 anti-apoptotic proteins. (A) Flow cytometric quantification of propidium iodide exclusion assay in HL60 cells treated with the 49 putative Bcl-2 family inhibitors (50 μM, 72 h). (B) Analysis of cell viability by CellTiterGlo assay in HL60 cells treated for 24 h with concentrations ranging from 5 to 50 μM of the indicated compounds. (C-D) Analysis of cell viability by MTT assay in (C) M14 and (D) Sbcl2 melanoma cell lines treated for 72 h with concentrations ranging from 5 to 50 μM of the indicated compounds. […]

[2] = test system: H1299 cells; experiment: Tumor sphere formation assay, H1299; format: cell-based, Human; details: 20 µM for 72 h, respect to controls
Protocol: For tumor sphere assay, cells were recovered after treatment, counted and seeded in 24-well ultralow attachment surface plates at a density of 5 × 10^2 cells/well and cultured as previously described. After 10 days, spheres were photographed and counted. The percentage of spheres normalized to the number of seeded cells was calculated.
Figure 4 Analysis of the effect of IS20 and IS21 on cell viability, clonogenic ability and tumor sphere formation in cancer cells. (A) Analysis of cell viability by MTT assay in M14, H1299, HCT116 and MDA-MB-231 cell lines treated with IS20 or IS21 (20 μM for 72 h). The results are reported as “viability of treated cells/viability of control cells (Ctrl)” × 100. (B) Representative images and quantification of clonogenic ability evaluated in M14 and H1299 cells treated with IS20 or IS21 (20 μM for 72 h). Results are reported as percentage of clonogenicity of treated versus control cells. (C) Quantification of tumor sphere formation of M14 and H1299 cells treated with IS20 or IS21 (20 μM for 72 h). Results are reported as percentage of tumor sphere formation of treated versus control. (A-C) Data are reported as mean ± SD of three independent experiments. p-values were calculated between control (Ctrl) and treated cells, ** p < 0.001 and *** p < 0.0001.

[3] = test system: M14 cells; experiment: Clonogenic assay, M14; format: cell-based, Human; details: 20 µM for 72 h, respect to controls
Protocol: as §1
Figure 4 Analysis of the effect of IS20 and IS21 on cell viability, clonogenic ability and tumor sphere formation in cancer cells. […] (B) Representative images and quantification of clonogenic ability evaluated in M14 and H1299 cells treated with IS20 or IS21 (20 μM for 72 h). […] (C) Quantification of tumor sphere formation of M14 and H1299 cells treated with IS20 or IS21 (20 μM for 72 h). […] (A-C) Data are reported as mean ± SD of three independent experiments. p-values were calculated between control (Ctrl) and treated cells, ** p < 0.001 and *** p < 0.0001.

[4] = target: Mcl-1 (Homo sapiens, UniProt Q07820); experiment: SPR binding to immobilized Mcl-1; details: 25 °C, 2-site fit, highest affinity site
Protocol: FastStep experiments were performed with a SensiQ Pioneer apparatus. Bcl-2 immobilization on COOH5 sensorchips was carried out essentially as previously reported, [40]. All the experiments were carried out at 25 °C in degassed HEPES 20 mM, pH 7.4, NaCl 150 mM, 0.005% surfactant P20 + 2% DMSO (HBSP2%D). […] Each sensorgram is the average of at least three experiments. The decrease in Response Units (RU) after 165 s indicates analyte dissociation from the immobilized Bcl-2 upon HSBP2%D buffer injection. Control SPR experiments were carried out measuring sensorgrams on Bcl-xL and Mcl-1 (ligands) immobilized on COOH5 sensorchips as previously reported at 25 °C in degassed HBSP2%D buffer. […] Each sensorgram is the average of at least three experiments. The decrease in RU after 180 s indicates analyte dissociation from the immobilized ligands upon HSBP2%D buffer injection. Kinetic evaluation of the sensorgrams was carried out using the Qdat 4.0 program; best fittings were obtained with 2 sites and indicated in red (reported KD values refer to dissociation constants of the highest affinity site).
Figure 3 SPR analysis of the interaction between IS20 or IS21 and Bcl-xL and Mcl-1 proteins. SPR experiments were carried out measuring sensorgrams on Bcl-xL and Mcl-1 (ligands) immobilized on COOH5 sensorchips at 25 °C in degassed HBSP2%D buffer. IS20 and IS21 (analytes) were injected at a flow rate = 30 μL/min, at the following concentrations: 0.3 μM (only for Mcl-1 experiments); 1 μM; 3 μM; 10 μM; 30 μM. Each sensorgram is the average of at least three experiments. The decrease in RU (Response Units) after 180 s indicates analyte dissociation from the immobilized ligands upon HSBP2%D buffer injection. The fitted KD values for Bcl-xL are the following. IS20: 0.42 ± 0.09 μM and IS21: 0.51 ± 0.17 μM. The fitted KD values for Mcl-1are the following. IS20: 3.9 ± 0.30 μM and IS21: 1.16 ± 0.14 μM;

[5] = test system: normal human fibroblasts; experiment: Viability of normal fibroblasts; format: cell-based; details: data not shown

Sequence of Mcl-1 (Q07820 whole entry): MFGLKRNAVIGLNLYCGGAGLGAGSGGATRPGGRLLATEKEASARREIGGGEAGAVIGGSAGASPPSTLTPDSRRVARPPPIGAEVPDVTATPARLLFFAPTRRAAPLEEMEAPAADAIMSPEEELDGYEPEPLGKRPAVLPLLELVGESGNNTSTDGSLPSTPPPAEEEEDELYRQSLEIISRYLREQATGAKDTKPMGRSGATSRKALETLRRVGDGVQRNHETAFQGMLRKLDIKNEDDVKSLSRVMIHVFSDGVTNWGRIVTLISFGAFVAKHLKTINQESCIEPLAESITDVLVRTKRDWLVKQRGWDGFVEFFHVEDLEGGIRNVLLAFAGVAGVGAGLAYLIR

SMILES	IC50 [1]	decrease of sphere formation capacity, H1299 [2]	decrease of cell colony formation, M14 [3]	Kd [4]	effect on normal human fibroblasts viability [5]
CCCCOc1ccc(C2/C(=C(\O)c3ccc4c(c3)CC(C)O4)C(=O)C(=O)N2c2nnc(SCc3ccc(Cl)cc3)s2)cc1OCC (stereo not shown) [IS20]	21 µM	about 60%	80-90%	3900 ± 300 nM	no significant effect
CCCCCOc1ccc(C2/C(=C(\O)c3ccc4c(c3)CC(C)O4)C(=O)C(=O)N2c2nnc(SCc3ccc(Cl)cc3)s2)cc1OCC (stereo not shown) [IS21]	19.8 µM	about 60%	80-90%	1160 ± 140 nM	no significant effect
